The text below walks through data of patent US20050014817A1, “Fluorothiophene derivatives, process for preparing them and pharmaceutical compositions containing them” (Pfizer Inc, priority 2003, published 2005).

One test concerns the target MMP-12 (Homo sapiens, UniProt P39900). The experiment in a line: In vitro inhibition of MMP-12 proteolysis of fluorigenic peptide FP-1. The test is classed as biochemical. The following applies: FP-1 substrate 10 μM, 20 minutes at room temperature. As for the experimental part: In Vitro Evaluation of the Inhibitory Activity of the Compounds of the Invention on MMP-12:
(§1) The inhibitory activity of the compounds of formula (I) on metalloprotease-12 is evaluated by testing the capacity of the compounds of the invention to inhibit the proteolysis of a peptide that is an MMP-12 substrate.
The substrate peptide used (fluorigenic peptide-1: FP-1) in the test has the following sequence: Mca-Pro-Leu-Gly-Leu-Dap(Dnp)-Ala-Arg-NH2.
The inhibitory activity of a compound of formula (I) is expressed as the IC50 value, which represents the concentration of inhibitor for which a 50% inhibition of the metalloprotease is observed.
(§2) The reaction starts with the sequential addition of 41 μl of FP-1 substrate (final concentration of 10 μM) to a buffer solution of 50 mM of Tris-HCl and 10 mM of CaCl2, and containing 5 mM of hydroxamic acid and 5 μl of the enzyme diluted in a 0.005% Brij-35 buffer solution. The microplates are incubated for 20 minutes at room temperature.
(§3) The compounds of the invention are tested at concentrations ranging from 0.3 to 30 μM.
(§4) The measurement of the amount of proteolysis of the peptide substrate is monitored by means of a measurement of absorbance at 405 nm using a microplate spectrophotometer, at room temperature. The IC50 values are calculated from curves in which the percentage of the catalytic activity relative to the control is represented on the x-axis and the inhibitor concentration is represented on the y-axis.

For the next test, the target named is MMP-13 (Homo sapiens, UniProt P45452). The experiment in a line: MMP-12 test adapted to MMP-13. The test is classed as biochemical. The protocol: as §1, §2, §3, §4
The test described above for the inhibition of MMP-12 is adapted and used to determine the capacity of the compounds of formula (I) to inhibit the metalloproteases MMP-1, MMP-2, MMP-3, MMP-7, MMP-9, MMP-13 and MMP-14.

Sequence of MMP-12 (P39900 106-470): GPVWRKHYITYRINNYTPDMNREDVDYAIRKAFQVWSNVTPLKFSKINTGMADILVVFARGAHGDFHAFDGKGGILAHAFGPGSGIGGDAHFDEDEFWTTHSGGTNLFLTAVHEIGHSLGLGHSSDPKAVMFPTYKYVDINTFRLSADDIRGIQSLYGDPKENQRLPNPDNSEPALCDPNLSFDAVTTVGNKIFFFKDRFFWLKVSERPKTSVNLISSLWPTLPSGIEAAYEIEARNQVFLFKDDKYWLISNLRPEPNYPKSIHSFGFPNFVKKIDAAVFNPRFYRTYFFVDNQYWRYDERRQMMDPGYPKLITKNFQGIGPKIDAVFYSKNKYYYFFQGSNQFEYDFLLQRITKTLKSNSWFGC

`CC(=O)c1ccc(-c2ccc(-c3cc(C(=O)NC[C@H]4CC[C@H](C(=O)O)CC4)sc3F)cc2)cc1` [Example 2, trans4-({[5-Fluoro-4-(4-[4-acetylphenyl]phenyl)thien-2-yl]carboxamido}methyl)cyclohexanecarboxylic Acid]: the IC50 against MMP-12 is 0.007 µM; against MMP-13, 0.038 µM.
For `CC(=O)c1ccc(-c2ccc(-c3cc(C(=O)N[C@H](CC(=O)O)c4ccccc4)sc3F)cc2)cc1` [Example 3, 3-(R)-Phenyl-3-({5-fluoro-4-[4-(4-acetylphenyl)phenyl]thien-2 yl}carboxamido)-propanoic Acid] the same measures were 0.024 µM and 0.085 µM.
On the same counts, the results for `O=C(NC[C@H]1CC[C@H](C(=O)O)CC1)c1cc(-c2ccc(OC(F)(F)F)cc2)c(F)s1` [Example 1, 4-({[5-Fluoro-4-(4-trifluoromethoxyphenyl)thien-2-yl]carboxamido}-methyl)cyclohexanecarboxylic Acid] are 0.14 µM and 2.8 µM.
